Source: ChEMBL document CHEMBL3046126, “Synthesis and Herbicidal Activity of New Oxazolidinedione Derivatives” (J Pestic Sci, 1999)

What was measured:
[1] = Selectivity index, ratio of ED10 for Oryza sativa to ED90 for Echinochloa oryzicola by post-emergence exposure method
[2] = system: Oryza sativa; experiment: Pre-emergence phytotoxicity against Oryza sativa cv. Koshihikari (rice) assessed as phytotoxic crop injury visual ratings measured after 14 days post treatment; format: organism-based; conditions: in vivo, 336 h
[3] = system: Zea mays; experiment: Pre-emergence phytotoxicity against Zea mays (maize) assessed as phytotoxic crop injury visual ratings at 500 g ai/ha measured after 14 days post treatment under upland field conditions; format: organism-based; conditions: in vivo, other, 336 h
[4] = system: Oryza sativa; experiment: Pre-emergence phytotoxicity against Oryza sativa cv. Koshihikari (rice) assessed as phytotoxic crop injury visual ratings at 25 g ai/ha measured after 14 days post treatment under flooded conditions; format: organism-based; conditions: in vivo, other, 336 h
[5] = system: Oryza sativa; experiment: Post-emergence phytotoxicity against Oryza sativa cv. Koshihikari (rice) assessed as phytotoxic crop injury visual ratings measured after 14 days post treatment; format: organism-based; conditions: in vivo, 336 h
[6] = Selectivity index, ratio of ED10 for Oryza sativa to ED90 for Echinochloa oryzicola by pre-emergence exposure method
[7] = system: Rotala indica; experiment: Pre-emergence herbicidal activity against Rotala indica assessed as phytotoxic weed control visual ratings at 1.25 kg ai/ha measured after 14 days post treatment under flooded conditions; format: functional
[8] = system: Echinochloa oryzicola; experiment: Pre-emergence herbicidal activity against Echinochloa oryzicola assessed as phytotoxic weed control visual ratings at 1.25 kg ai/ha measured after 14 days post treatment under flooded conditions; format: functional
[9] = system: Schoenoplectiella juncoides; experiment: Pre-emergence herbicidal activity against Schoenoplectiella juncoides assessed as phytotoxic weed control visual ratings at 1.25 kg ai/ha measured after 14 days post treatment under flooded conditions; format: functional
[10] = system: Pontederia vaginalis; experiment: Pre-emergence herbicidal activity against Monochoria vaginalis assessed as phytotoxic weed control visual ratings at 1.25 kg ai/ha measured after 14 days post treatment under flooded conditions; format: functional
[11] = system: Oryza sativa; experiment: Pre-emergence phytotoxicity against Oryza sativa cv. Koshihikari (rice) assessed as phytotoxic crop injury visual ratings at 1.25 kg ai/ha measured after 14 days post treatment under flooded conditions; format: organism-based; conditions: in vivo, other, 336 h
[12] = system: Lindernia procumbens; experiment: Pre-emergence herbicidal activity against Lindernia procumbens assessed as phytotoxic weed control visual ratings at 1.25 kg ai/ha measured after 14 days post treatment under flooded conditions; format: functional
[13] = system: Cyperus difformis; experiment: Pre-emergence herbicidal activity against Cyperus difformis assessed as phytotoxic weed control visual ratings at 1.25 kg ai/ha measured after 14 days post treatment under flooded conditions; format: functional
[14] = system: Elatine triandra; experiment: Pre-emergence herbicidal activity against Elatine triandra assessed as phytotoxic weed control visual ratings at 1.25 kg ai/ha measured after 14 days post treatment under flooded conditions; format: functional
[15] = system: Echinochloa oryzicola; experiment: Pre-emergence herbicidal activity against Echinochloa oryzicola assessed as phytotoxic weed control visual ratings at 25 g ai/ha measured after 14 days post treatment under flooded conditions; format: functional
[16] = system: Pontederia vaginalis; experiment: Pre-emergence herbicidal activity against Monochoria vaginalis assessed as phytotoxic weed control visual ratings at 25 g ai/ha measured after 14 days post treatment under flooded conditions; format: functional
[17] = system: Chenopodium album; experiment: Pre-emergence herbicidal activity against Chenopodium album assessed as phytotoxic weed control visual ratings at 500 g ai/ha measured after 14 days post treatment under upland field conditions; format: functional
[18] = system: Echinochloa crus-galli; experiment: Pre-emergence herbicidal activity against Echinochloa crus-galli (barnyard grass) assessed as phytotoxic weed control visual ratings at 500 g ai/ha measured after 14 days post treatment under upland field conditions; format: functional
[19] = system: Cyperus difformis; experiment: Pre-emergence herbicidal activity against Cyperus difformis assessed as phytotoxic weed control visual ratings at 25 g ai/ha measured after 14 days post treatment under flooded conditions; format: functional
[20] = system: Schoenoplectiella juncoides; experiment: Pre-emergence herbicidal activity against Schoenoplectiella juncoides assessed as phytotoxic weed control visual ratings at 25 g ai/ha measured after 14 days post treatment under flooded conditions; format: functional
[21] = system: Elatine triandra; experiment: Pre-emergence herbicidal activity against Elatine triandra assessed as phytotoxic weed control visual ratings at 25 g ai/ha measured after 14 days post treatment under flooded conditions; format: functional
[22] = system: Lindernia procumbens; experiment: Pre-emergence herbicidal activity against Lindernia procumbens assessed as phytotoxic weed control visual ratings at 25 g ai/ha measured after 14 days post treatment under flooded conditions; format: functional
[23] = system: Rotala indica; experiment: Pre-emergence herbicidal activity against Rotala indica assessed as phytotoxic weed control visual ratings at 25 g ai/ha measured after 14 days post treatment under flooded conditions; format: functional
[24] = system: Amaranthus viridis; experiment: Pre-emergence herbicidal activity against Amaranthus viridis assessed as phytotoxic weed control visual ratings at 500 g ai/ha measured after 14 days post treatment under upland field conditions; format: functional
[25] = system: Digitaria ciliaris; experiment: Pre-emergence herbicidal activity against Digitaria ciliaris assessed as phytotoxic weed control visual ratings at 500 g ai/ha measured after 14 days post treatment under upland field conditions; format: functional
[26] = system: Elatine triandra; experiment: Pre-emergence herbicidal activity against Elatine triandra assessed as phytotoxic weed control visual ratings at 2.5 kg ai/ha measured after 14 days post treatment under flooded conditions; format: functional
[27] = system: Schoenoplectiella juncoides; experiment: Pre-emergence herbicidal activity against Schoenoplectiella juncoides assessed as phytotoxic weed control visual ratings at 2.5 kg ai/ha measured after 14 days post treatment under flooded conditions; format: functional
[28] = system: Rotala indica; experiment: Pre-emergence herbicidal activity against Rotala indica assessed as phytotoxic weed control visual ratings at 2.5 kg ai/ha measured after 14 days post treatment under flooded conditions; format: functional
[29] = system: Oryza sativa; experiment: Pre-emergence phytotoxicity against Oryza sativa cv. Koshihikari (rice) assessed as phytotoxic crop injury visual ratings at 2.5 kg ai/ha measured after 14 days post treatment under flooded conditions; format: organism-based; conditions: in vivo, other, 336 h
[30] = system: Echinochloa oryzicola; experiment: Pre-emergence herbicidal activity against Echinochloa oryzicola assessed as phytotoxic weed control visual ratings at 2.5 kg ai/ha measured after 14 days post treatment under flooded conditions; format: functional
[31] = system: Lindernia procumbens; experiment: Pre-emergence herbicidal activity against Lindernia procumbens assessed as phytotoxic weed control visual ratings at 2.5 kg ai/ha measured after 14 days post treatment under flooded conditions; format: functional
[32] = system: Pontederia vaginalis; experiment: Pre-emergence herbicidal activity against Monochoria vaginalis assessed as phytotoxic weed control visual ratings at 2.5 kg ai/ha measured after 14 days post treatment under flooded conditions; format: functional
[33] = system: Cyperus difformis; experiment: Pre-emergence herbicidal activity against Cyperus difformis assessed as phytotoxic weed control visual ratings at 2.5 kg ai/ha measured after 14 days post treatment under flooded conditions; format: functional

Compound | Phytotoxicity [3] | Phytotoxicity [4] | Phytotoxicity [7] | Phytotoxicity [8] | Phytotoxicity [9] | Phytotoxicity [10] | Phytotoxicity [11] | Phytotoxicity [12] | Phytotoxicity [13] | Phytotoxicity [14] | Phytotoxicity [15] | Phytotoxicity [16] | Phytotoxicity [17] | Phytotoxicity [18] | Phytotoxicity [19] | Phytotoxicity [20] | Phytotoxicity [21] | Phytotoxicity [22] | Phytotoxicity [23] | Phytotoxicity [24] | further results
C#CC(C)Oc1cc(N2C(=O)OC(=C(C)C)C2=O)c(F)cc1Cl (stereo not drawn) | 10% | 20% |  |  |  |  |  |  |  |  |  |  |  |  |  |  |  |  |  |  | Selectivity Index [1]: 2; ED10 [2]: 6.25 gAi/ha; ED10 [5]: 12.5 gAi/ha; Selectivity Index [6]: 4
CCCCCC/C(C)=C1/OC(=O)N(c2ccc(Cl)cc2)C1=O |  |  | 4% | 10% | 10% | 50% | 0% | 4% | 80% | 4% |  |  |  |  |  |  |  |  |  |  | 
COc1cc(N2C(=O)OC(=C(C)C)C2=O)c(F)cc1Cl | 30% | 0% |  |  |  |  |  |  |  |  | 30% | 80% | 90% | 60% | 100% | 10% | 100% | 100% | 100% | 80% | Phytotoxicity [25]: 90%
CCC(CC)Oc1cc(N2C(=O)OC(=C(C)C)C2=O)c(F)cc1Cl | 0% | 0% |  |  |  |  |  |  |  |  | 60% | 100% | 90% | 30% | 100% | 90% | 100% | 100% | 100% | 90% | Phytotoxicity [25]: 60%
CC(C)=C1OC(=O)N(c2c(Cl)cc(Cl)cc2Cl)C1=O |  |  |  |  |  |  |  |  |  |  |  |  |  |  |  |  |  |  |  |  | Phytotoxicity [26]: 100%; Phytotoxicity [27]: 20%; Phytotoxicity [28]: 100%; Phytotoxicity [29]: 0%; Phytotoxicity [30]: 30%; Phytotoxicity [31]: 100%; Phytotoxicity [32]: 100%; Phytotoxicity [33]: 100%
CC(C)=C1OC(=O)N(c2cc(O)c(Cl)cc2F)C1=O | 0% | 0% |  |  |  |  |  |  |  |  | 0% | 10% | 10% | 0% | 30% | 0% | 10% | 10% | 10% | 0% | Phytotoxicity [25]: 0%
CCCC/C(C)=C1/OC(=O)N(c2ccc(Cl)cc2)C1=O |  |  | 100% | 40% | 100% | 100% | 10% | 100% | 100% | 100% |  |  |  |  |  |  |  |  |  |  | 
CCC(CC)=C1OC(=O)N(c2ccc(Cl)cc2)C1=O |  |  | 100% | 10% | 30% | 90% | 0% | 100% | 100% | 100% |  |  |  |  |  |  |  |  |  |  | 
CCC(C)Oc1cc(N2C(=O)OC(=C(C)C)C2=O)c(F)cc1Cl (stereo not drawn) | 0% | 10% |  |  |  |  |  |  |  |  | 80% | 100% | 10% | 20% | 100% | 100% | 100% | 100% | 100% | 90% | Phytotoxicity [25]: 80%
CC/C(C)=C1/OC(=O)N(c2ccc(F)cc2)C1=O |  |  | 100% | 10% | 60% | 100% | 0% | 100% | 100% | 100% |  |  |  |  |  |  |  |  |  |  | 
CC(C)=C1OC(=O)N(c2ccccc2Cl)C1=O |  |  |  |  |  |  |  |  |  |  |  |  |  |  |  |  |  |  |  |  | Phytotoxicity [26]: 0%; Phytotoxicity [27]: 0%; Phytotoxicity [28]: 0%; Phytotoxicity [29]: 0%; Phytotoxicity [30]: 0%; Phytotoxicity [31]: 0%; Phytotoxicity [32]: 0%; Phytotoxicity [33]: 0%
C=CC1(C)OC(=O)N(c2cc(Cl)cc(Cl)c2)C1=O (stereo not drawn) [VINCLOZOLIN] |  |  |  |  |  |  |  |  |  |  |  |  |  |  |  |  |  |  |  |  | Phytotoxicity [26]: 50%; Phytotoxicity [27]: 30%; Phytotoxicity [28]: 50%; Phytotoxicity [29]: 0%; Phytotoxicity [30]: 90%; Phytotoxicity [31]: 50%; Phytotoxicity [32]: 50%; Phytotoxicity [33]: 50%
C=C(C)C1(C)OC(=O)N(c2cc(Cl)cc(Cl)c2)C1=O (stereo not drawn) |  |  |  |  |  |  |  |  |  |  |  |  |  |  |  |  |  |  |  |  | Phytotoxicity [26]: 60%; Phytotoxicity [27]: 20%; Phytotoxicity [28]: 60%; Phytotoxicity [29]: 0%; Phytotoxicity [30]: 80%; Phytotoxicity [31]: 60%; Phytotoxicity [32]: 30%; Phytotoxicity [33]: 30%
CC(C)=C1OC(=O)N(c2cccc(Cl)c2)C1=O |  |  |  |  |  |  |  |  |  |  |  |  |  |  |  |  |  |  |  |  | Phytotoxicity [26]: 30%; Phytotoxicity [27]: 10%; Phytotoxicity [28]: 30%; Phytotoxicity [29]: 0%; Phytotoxicity [30]: 0%; Phytotoxicity [31]: 30%; Phytotoxicity [32]: 30%; Phytotoxicity [33]: 30%
CCOc1cc(N2C(=O)OC(=C(C)C)C2=O)c(F)cc1Cl | 10% | 10% |  |  |  |  |  |  |  |  | 30% | 100% | 90% | 50% | 100% | 60% | 100% | 100% | 100% | 100% | Phytotoxicity [25]: 90%
CC/C(C)=C1/OC(=O)N(c2ccc(Cl)cc2)C1=O |  |  | 100% | 100% | 100% | 100% | 20% | 100% | 100% | 100% |  |  |  |  |  |  |  |  |  |  | 
O=C1OC(=C2CCCCC2)C(=O)N1c1ccc(Cl)cc1 |  |  | 100% | 10% | 80% | 10% | 0% | 100% | 100% | 100% |  |  |  |  |  |  |  |  |  |  | 
CC(C)=C1OC(=O)N(c2cc(Cl)cc(Cl)c2)C1=O |  |  |  |  |  |  |  |  |  |  |  |  |  |  |  |  |  |  |  |  | Phytotoxicity [26]: 50%; Phytotoxicity [27]: 30%; Phytotoxicity [28]: 50%; Phytotoxicity [29]: 0%; Phytotoxicity [30]: 0%; Phytotoxicity [31]: 50%; Phytotoxicity [32]: 50%; Phytotoxicity [33]: 30%
CCCCCCOc1cc(N2C(=O)OC(=C(C)C)C2=O)c(F)cc1Cl | 0% | 0% |  |  |  |  |  |  |  |  | 10% | 90% | 50% | 10% | 80% | 60% | 70% | 70% | 70% | 100% | Phytotoxicity [25]: 10%
CC(C)=C1OC(=O)N(c2ccc(F)cc2)C1=O |  |  | 40% | 10% | 0% | 40% | 0% | 40% | 100% | 40% |  |  |  |  |  |  |  |  |  |  | 
